Earlier results on two compounds are cited in US20140005116A1, “KELOID TREATMENT” (ADE THERAPEUTICS INC., priority 2010, published 2014).

For the data set the following is noted: heat sterilization and prolonged storage.

Peptide text beside a SMILES is read from it.

For `C[C@H](N)C(=O)N[C@@H](CCC(N)=O)C(=O)O` [alanyl-glutamine, L-alanyl-L-glutamine] (H-Ala-Gln-OH), the “stability during sterilization and prolonged storage” value is “sufficiently stable”.

With `NCC(=O)N[C@@H](CCC(N)=O)C(=O)O` [Glycyl-glutamine] (H-Gly-Gln-OH), the “stability during sterilization and prolonged storage” value is listed as “sufficiently stable”.
